Literature values as cited in patent US20240182893A1, “INHIBITION OF FGR REDUCES FIBROSIS” (UNIVERSITY OF PITTSBURGH-OF THE COMMONWEALTH SYSTEM OF …, priority 2021, published 2024).

System: fibrosis in the lung
Conditions: in vivo; cited from earlier work

Row | SMILES | progression of fibrosis in the lung
1 | Cc1ccc(=O)n(-c2ccccc2)c1 [pirfenidone] | slow the progression of fibrosis
2 | COC(=O)c1ccc2c(c1)NC(=O)/C2=C(\Nc1ccc(N(C)C(=O)CN2CCN(C)CC2)cc1)c1ccccc1 [nintedanib] | slow the progression of fibrosis
